Laboratory results reported in ChEMBL document CHEMBL1201862, “PubChem BioAssay data set” (2004).
Active and inactive are the calls of the source.

Columns and labels:
Bcl-2-related protein A1 [1] = target: T1, Bcl-2-related protein A1 (Mus musculus, UniProt Q07440); assay: Bfl-1 inhibitors, primary screen, biochemical, fluorescence polarization, FITC-Bid, mouse (AID 432)
T1 sequence (Q07440 whole entry): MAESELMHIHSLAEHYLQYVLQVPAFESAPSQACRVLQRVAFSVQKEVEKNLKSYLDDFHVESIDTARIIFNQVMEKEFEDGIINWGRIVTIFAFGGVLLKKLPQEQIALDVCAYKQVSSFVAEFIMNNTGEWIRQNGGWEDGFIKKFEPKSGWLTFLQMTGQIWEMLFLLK

Bcl-2-related protein A1 [2] = target: T1, Bcl-2-related protein A1; assay: Bfl-1 inhibitors blocking BH3 peptide binding, confirmation, biochemical, TR-FRET, mouse Bfl-1 (AID 621);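 also: TR-FRET binding of GST-Bfl-1 to FITC-labelled Bid peptide via terbium antibody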
[3] = target: T2, Dual specificity protein phosphatase 6 (Rattus norvegicus, UniProt Q64346); assay: MKP-3 phosphatase inhibitors, primary screen, biochemical, rat enzyme, in vitro (AID 425)
T2 sequence (Q64346 whole entry): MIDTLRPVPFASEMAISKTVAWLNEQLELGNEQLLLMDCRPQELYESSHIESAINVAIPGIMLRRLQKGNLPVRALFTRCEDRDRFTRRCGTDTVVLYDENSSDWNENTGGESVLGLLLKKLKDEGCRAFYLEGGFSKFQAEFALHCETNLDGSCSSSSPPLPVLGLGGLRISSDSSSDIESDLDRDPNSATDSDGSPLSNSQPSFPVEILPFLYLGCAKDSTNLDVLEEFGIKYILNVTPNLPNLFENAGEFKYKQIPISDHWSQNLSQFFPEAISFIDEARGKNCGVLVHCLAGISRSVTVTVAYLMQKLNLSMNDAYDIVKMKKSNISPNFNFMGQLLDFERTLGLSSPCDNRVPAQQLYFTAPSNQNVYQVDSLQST

Danio rerio = assay: In Vivo Angiogenesis Dose-Response Confirmation. [Related pubchem assays: 732 (Assay preceding this confirmatory assay.)]; assay type: functional, organism-based
[4] = target: T3, High affinity choline transporter 1 (Homo sapiens, UniProt Q9GZV3); assay: CHT inhibitors, dose response, cell-based, 5-point CRC, membrane potential dye (AID 504840); assay type: functional
T3 sequence (Q9GZV3 whole entry): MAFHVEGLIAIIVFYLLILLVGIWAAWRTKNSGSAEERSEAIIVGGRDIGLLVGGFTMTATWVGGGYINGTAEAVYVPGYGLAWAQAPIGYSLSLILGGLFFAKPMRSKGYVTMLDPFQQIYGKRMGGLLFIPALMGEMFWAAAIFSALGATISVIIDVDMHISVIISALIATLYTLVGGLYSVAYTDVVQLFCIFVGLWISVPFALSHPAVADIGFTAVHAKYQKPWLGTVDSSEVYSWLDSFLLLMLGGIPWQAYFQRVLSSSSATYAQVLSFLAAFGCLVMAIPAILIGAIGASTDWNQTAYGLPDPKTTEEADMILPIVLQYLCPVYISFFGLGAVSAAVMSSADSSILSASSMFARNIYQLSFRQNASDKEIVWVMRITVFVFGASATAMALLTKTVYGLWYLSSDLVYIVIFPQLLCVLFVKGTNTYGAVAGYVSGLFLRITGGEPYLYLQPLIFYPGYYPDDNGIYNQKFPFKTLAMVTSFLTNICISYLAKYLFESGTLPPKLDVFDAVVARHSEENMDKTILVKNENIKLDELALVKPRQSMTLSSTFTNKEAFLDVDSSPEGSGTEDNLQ

[5] = target: Solute carrier family 12 member 2/member 5 (Homo sapiens, UniProt P55011+Q9H2X9); assay: KCC2 and NKCC1 inhibition by rubidium flux, cell-based, NKCC1 counter-screen (AID 1734); assay type: functional, HEK293
[6] = target: T4, Low molecular weight phosphotyrosine protein phosphatase (Homo sapiens, UniProt P24666); assay: LMPTP phosphatase inhibitors, dose response, biochemical, OMFP substrate, fluorescence intensity, set 2 (AID 743307); assay type: functional
T4 sequence (P24666 whole entry): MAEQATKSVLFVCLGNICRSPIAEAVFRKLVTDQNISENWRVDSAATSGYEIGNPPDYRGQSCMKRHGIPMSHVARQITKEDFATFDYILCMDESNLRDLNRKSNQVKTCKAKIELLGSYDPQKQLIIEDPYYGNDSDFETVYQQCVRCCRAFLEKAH

[7] = target: T4, Low molecular weight phosphotyrosine protein phosphatase; assay: LMPTP phosphatase inhibitors, colorimetric pNPP readout, dose response, orthogonal assay, biochemical, absorbance, pNPP substrate, LMPTP-A isoform, set 2 (AID 743308); assay type: functional
HEK293 [8] = assay: cells; assay type: functional, cell-based; conditions: Homo sapiens
INS1 = assay: beta cell apoptosis inhibitors, cytokine rescue, dose response, luminescence, retest (AID 449756); assay type: functional, cell-based; conditions: Rattus norvegicus;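 also: cell death triggered by IL-1 beta plus TNF-alpha plus IFN-gamma mixture; protective hits raise ATP signal compared with cytokine alone wells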
HEK293 [9] = assay: cells; assay type: functional, cell-based; conditions: Homo sapiens; remark: listed apart in the source
[10] = Intein inhibitors as potential Tuberculosis drugs, a cytotoxicity screen. [Related pubchem assays (depositor defined):AID2221, AID2223, AID434968, AID435010, AID449749, AID449750, AID489010]; assay type: functional
HEK293 [11] = assay: NOD2 signaling inhibitors in MDP-stimulated cells, cell-based, uHTS, luminescence (AID 2001); assay type: functional; conditions: Homo sapiens
[12] = growth suppression of PTEN-null colon cells, dose response, cell-based, HCT116 PTEN knockout (AID 1047); assay type: functional;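 also: HCT116 colon tumor cells with PTEN knocked out; cells exposed to compound for 60 hours before readout; potency for loss of cell viability measured by luminescence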
HEK293 [13] = assay: cells; assay type: functional, cell-based; conditions: Homo sapiens; remark: listed apart in the source
HEK293 [14] = assay: NOD1 signaling inhibitors, primary screen, cell-based, luminescence, uHTS (AID 1578); assay type: functional; conditions: Homo sapiens
[15] = growth suppression of beta-catenin-knockout colon cells, dose response, cell-based, HCT116, human colon tumor (AID 1045); assay type: functional;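 also: HCT116 colon tumor cells with beta catenin knocked out; cells exposed to compound for 60 hours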
[16] = Vero cell cytotoxicity, dose response, cytotoxicity control for Vif-APOBEC3G degradation inhibitor project, Vero cells (AID 1117358); assay type: functional; conditions: Human immunodeficiency virus 1, Vero
[17] = target: Nucleotide-binding oligomerization domain-containing protein 2 (Homo sapiens, UniProt Q9HC29); assay: NOD2 signaling inhibitors, cell-based, luminescence, uHTS, HEK293 (AID 1566); assay type: functional
Sequence of Nucleotide-binding oligomerization domain-containing protein 2 (Q9HC29 whole entry, the tested form may be a part): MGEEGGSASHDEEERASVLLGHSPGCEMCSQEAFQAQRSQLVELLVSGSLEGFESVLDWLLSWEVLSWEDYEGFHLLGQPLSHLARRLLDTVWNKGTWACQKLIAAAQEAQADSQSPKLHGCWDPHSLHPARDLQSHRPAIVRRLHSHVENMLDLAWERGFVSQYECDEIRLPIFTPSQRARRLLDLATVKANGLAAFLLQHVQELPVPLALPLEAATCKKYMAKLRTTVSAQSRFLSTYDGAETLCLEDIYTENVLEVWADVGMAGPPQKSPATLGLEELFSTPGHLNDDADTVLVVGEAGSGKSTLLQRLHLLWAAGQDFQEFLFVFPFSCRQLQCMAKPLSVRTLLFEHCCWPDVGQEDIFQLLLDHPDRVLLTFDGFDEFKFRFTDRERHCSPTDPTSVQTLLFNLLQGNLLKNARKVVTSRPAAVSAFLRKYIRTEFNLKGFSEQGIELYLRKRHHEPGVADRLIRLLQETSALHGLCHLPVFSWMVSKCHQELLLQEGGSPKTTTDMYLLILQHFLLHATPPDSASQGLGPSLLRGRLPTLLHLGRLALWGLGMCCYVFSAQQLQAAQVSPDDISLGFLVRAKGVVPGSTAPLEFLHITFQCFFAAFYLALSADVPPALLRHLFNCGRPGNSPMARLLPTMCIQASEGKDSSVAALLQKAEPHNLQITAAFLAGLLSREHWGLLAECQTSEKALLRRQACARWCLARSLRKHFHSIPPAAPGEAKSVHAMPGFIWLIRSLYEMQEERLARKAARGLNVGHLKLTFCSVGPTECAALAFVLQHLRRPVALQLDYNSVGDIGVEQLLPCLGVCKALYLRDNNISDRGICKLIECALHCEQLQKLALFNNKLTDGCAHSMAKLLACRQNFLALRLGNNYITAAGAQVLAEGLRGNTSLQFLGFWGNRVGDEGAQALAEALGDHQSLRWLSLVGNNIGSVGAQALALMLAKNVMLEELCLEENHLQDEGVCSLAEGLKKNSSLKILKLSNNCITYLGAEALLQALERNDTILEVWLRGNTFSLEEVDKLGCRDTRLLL

Protein RecA = target: T5, Protein RecA (Mycobacterium tuberculosis, UniProt P9WHJ3); assay: Fluorescence Cell-Free Homogeneous Dose Retest to Identify Inhibitors of RecA-Intein Splicing Activity. [Related pubchem assays (depositor defined):AID2097, AID2223, AID489010, AID492950]; assay type: functional
T5 sequence (P9WHJ3 whole entry): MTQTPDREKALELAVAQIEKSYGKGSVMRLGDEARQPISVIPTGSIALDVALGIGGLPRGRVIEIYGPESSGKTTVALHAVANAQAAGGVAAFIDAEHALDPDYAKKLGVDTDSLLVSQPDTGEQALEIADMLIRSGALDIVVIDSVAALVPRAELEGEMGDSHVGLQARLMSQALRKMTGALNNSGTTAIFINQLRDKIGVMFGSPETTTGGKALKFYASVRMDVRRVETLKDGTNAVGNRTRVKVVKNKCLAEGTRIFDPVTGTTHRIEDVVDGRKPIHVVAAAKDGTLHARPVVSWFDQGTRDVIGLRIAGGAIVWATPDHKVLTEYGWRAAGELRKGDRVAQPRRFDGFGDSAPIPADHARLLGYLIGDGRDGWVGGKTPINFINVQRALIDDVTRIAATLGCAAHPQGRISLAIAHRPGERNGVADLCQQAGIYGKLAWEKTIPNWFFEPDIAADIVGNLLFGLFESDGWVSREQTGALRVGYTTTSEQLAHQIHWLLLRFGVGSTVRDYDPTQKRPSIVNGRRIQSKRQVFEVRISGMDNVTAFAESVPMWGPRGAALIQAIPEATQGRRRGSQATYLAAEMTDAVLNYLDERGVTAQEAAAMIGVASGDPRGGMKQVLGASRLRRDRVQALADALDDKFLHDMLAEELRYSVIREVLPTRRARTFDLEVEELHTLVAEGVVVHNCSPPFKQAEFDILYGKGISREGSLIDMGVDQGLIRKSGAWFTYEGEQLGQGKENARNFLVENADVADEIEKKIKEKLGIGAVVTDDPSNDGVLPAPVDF

Nonstructural protein 1 = Nonstructural protein 1 (Influenza A virus, UniProt Q194T2); assay type: functional, Influenza A virus (A/California/07/2009(H1N1))
Sequence of Nonstructural protein 1 (Q194T2 whole entry): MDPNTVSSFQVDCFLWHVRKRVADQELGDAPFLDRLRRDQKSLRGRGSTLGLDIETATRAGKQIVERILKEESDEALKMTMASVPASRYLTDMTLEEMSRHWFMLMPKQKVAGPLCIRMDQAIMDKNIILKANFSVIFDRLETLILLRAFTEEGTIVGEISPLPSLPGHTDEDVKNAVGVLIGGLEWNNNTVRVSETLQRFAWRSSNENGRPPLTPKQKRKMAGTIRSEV

[18] = target: T6, Replicative DNA helicase DnaB (Mycobacterium tuberculosis, UniProt P9WMR3); assay: DnaB intein splicing inhibitors, dose response, biochemical, cell-free fluorescence (AID 449749); assay type: functional
T6 sequence (P9WMR3 whole entry): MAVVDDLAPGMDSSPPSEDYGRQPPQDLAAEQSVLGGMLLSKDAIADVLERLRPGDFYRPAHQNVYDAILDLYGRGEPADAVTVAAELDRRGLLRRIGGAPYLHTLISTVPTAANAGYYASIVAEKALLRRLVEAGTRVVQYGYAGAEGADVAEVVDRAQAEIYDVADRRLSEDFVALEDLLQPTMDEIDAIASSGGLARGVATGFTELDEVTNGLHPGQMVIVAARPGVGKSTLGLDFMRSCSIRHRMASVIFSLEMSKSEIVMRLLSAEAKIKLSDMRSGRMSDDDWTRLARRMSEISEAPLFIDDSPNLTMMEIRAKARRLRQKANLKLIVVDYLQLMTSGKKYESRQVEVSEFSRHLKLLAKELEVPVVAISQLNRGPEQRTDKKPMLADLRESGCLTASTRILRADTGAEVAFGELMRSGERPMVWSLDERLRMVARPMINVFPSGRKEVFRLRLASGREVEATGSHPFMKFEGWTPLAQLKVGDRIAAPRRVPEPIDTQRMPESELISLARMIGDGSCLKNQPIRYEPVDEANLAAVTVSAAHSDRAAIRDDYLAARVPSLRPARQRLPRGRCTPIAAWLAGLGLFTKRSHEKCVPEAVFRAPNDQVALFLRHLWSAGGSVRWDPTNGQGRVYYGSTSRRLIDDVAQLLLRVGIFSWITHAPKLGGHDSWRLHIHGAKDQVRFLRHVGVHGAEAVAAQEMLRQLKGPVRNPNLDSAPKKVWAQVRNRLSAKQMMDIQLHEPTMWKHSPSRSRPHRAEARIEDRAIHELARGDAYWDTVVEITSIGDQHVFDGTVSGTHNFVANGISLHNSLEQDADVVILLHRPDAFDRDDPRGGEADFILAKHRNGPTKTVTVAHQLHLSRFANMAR

NADPH oxidase 1 = NADPH oxidase 1 (Homo sapiens, UniProt Q9Y5S8); assay: Late-stage luminescence-based cell-based dose response assay to identify inhibitors of NADPH oxidase 1 (NOX1): Synthesized analogs 2.; assay type: functional
Sequence of NADPH oxidase 1 (Q9Y5S8 whole entry): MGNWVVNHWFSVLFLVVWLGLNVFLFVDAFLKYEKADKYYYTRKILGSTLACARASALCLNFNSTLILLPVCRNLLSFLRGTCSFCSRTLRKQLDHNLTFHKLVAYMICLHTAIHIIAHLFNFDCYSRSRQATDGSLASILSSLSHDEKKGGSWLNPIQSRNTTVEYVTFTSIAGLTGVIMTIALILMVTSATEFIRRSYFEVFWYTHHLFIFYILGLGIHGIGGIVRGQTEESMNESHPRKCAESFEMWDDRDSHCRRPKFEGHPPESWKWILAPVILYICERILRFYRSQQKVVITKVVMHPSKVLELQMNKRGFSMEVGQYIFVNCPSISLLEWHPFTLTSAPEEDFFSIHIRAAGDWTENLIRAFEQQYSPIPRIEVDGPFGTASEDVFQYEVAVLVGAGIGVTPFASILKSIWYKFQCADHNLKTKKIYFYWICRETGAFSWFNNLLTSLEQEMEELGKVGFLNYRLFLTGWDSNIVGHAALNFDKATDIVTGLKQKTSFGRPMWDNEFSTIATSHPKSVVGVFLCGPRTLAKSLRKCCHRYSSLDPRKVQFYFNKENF

cells [19] = assay type: functional, cell-based
[20] = target: T7, Mannose-6-phosphate isomerase (Homo sapiens, UniProt P34949); assay: human PMI inhibitors, high substrate, primary screen, biochemical, fluorescence intensity, high mannose 6-phosphate (AID 1220)
T7 sequence (P34949 whole entry): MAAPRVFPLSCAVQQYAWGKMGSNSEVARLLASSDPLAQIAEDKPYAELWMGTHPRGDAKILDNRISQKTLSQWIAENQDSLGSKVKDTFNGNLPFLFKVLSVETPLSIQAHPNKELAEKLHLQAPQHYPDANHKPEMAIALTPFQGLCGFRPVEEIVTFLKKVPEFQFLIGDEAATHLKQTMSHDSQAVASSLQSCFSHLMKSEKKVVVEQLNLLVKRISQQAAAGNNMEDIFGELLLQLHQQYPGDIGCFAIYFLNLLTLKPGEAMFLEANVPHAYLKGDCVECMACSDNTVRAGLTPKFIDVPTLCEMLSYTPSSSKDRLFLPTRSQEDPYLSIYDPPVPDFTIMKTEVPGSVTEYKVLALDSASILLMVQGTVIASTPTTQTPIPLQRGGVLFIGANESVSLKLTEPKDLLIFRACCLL

[21] = CEM21 lymphoblast cell cytotoxicity, dose response, cytotoxicity control for viral fusion inhibitor project, CellTiter-Glo luminescence, cherry-picked (AID 652042); assay type: functional, cell-based;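 also: potency for signal decrease meaning cytotoxicity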
cells [22] = assay type: functional, cell-based; remark: listed apart in the source
[23] = inhibitors of clade B AD8 Env fusion, dose response, cell-based, cherry-pick (AID 652062); assay type: functional;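 also: luciferase signal from cell-cell fusion driven by HIV-1 clade B AD8 Env; potency is for inhibitors of fusion seen as a drop in luminescence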

N#Cc1c(N)sc(=S)c2c1CCN(Cc1ccccc1)C2
IC50 (Bcl-2-related protein A1 [1]): > 100 µM (not active) | IC50 (Bcl-2-related protein A1 [2]): > 100 µM (not active) | IC50 [3]: 10.8 µM (active)

C[N+](C)(C)CCOC(=O)CBr [E1001]
IC50 (Danio rerio): 31.6 µM (not active) | IC50 [4]: 14.1 µM (active)

O=S(=O)(NCc1ccccc1)c1ccc(Cl)c(S(=O)(=O)NCc2ccccc2)c1
IC50 [5]: 9.1 µM (active)

CC1CCN(c2nc(-c3ccccc3)nc3ccccc23)CC1
IC50 [6]: > 80 µM (inactive) | IC50 [7]: > 80 µM (inactive)

CN(C1=C(NC(=O)c2ccc(Cl)cc2)C(=O)c2ccccc2C1=O)c1ccccc1
IC50 (HEK293 [8]): 9.67 µM (active) | AC50 (INS1): 3.01 µM (active) | IC50 (HEK293 [9]): > 20 µM (inactive) | CC50 [10]: 20.1 µM (active) | IC50 (HEK293 [11]): 8.31 µM (active) | EC50 [12]: 7.51 µM (active) | IC50 (HEK293 [13]): 5.15 µM (active) | EC50 (HEK293 [14]): > 20 µM (inactive) | EC50 [15]: 8.39 µM (active) | CC50 [16]: > 40 µM (active) | EC50 [17]: 11.4 µM (active) | EC50 (Protein RecA): 1.66 µM (active) | IC50 (Nonstructural protein 1): 7.27 µM (active) | AC50 [18]: 3.94 µM (active)

O=C(Nc1c(F)cccc1F)N1c2ccccc2Sc2ccccc21
IC50 (NADPH oxidase 1): 0.636 µM (active)

COc1ccccc1N1CCN(Cc2ccc(O)c3ncccc23)CC1
EC50 (cells [19]): > 350 µM (not active) | AC50 (INS1): 2.27 µM (active) | IC50 [20]: 19.2 µM (active) | AC50 [21]: 3.39 µM (active) | EC50 (cells [22]): 12.1 µM (active) | EC50 [12]: 2.25 µM (active) | EC50 [15]: 1.95 µM (active) | AC50 [23]: 29.6 µM (active) | IC50 (Nonstructural protein 1): 5.46 µM (active)
